Assay [1] deals with MV4:11 (MLL-AF4 MLL) cells. Nature of the assay: Cell viability assay (CellTiter-Glo), 12 days. Format: cell-based. Conditions: MV4;11 cells, 12 day, read-out: CTG_MV4, 11 12 DAY_EC50. On the procedure:
The assays were conducted over 12 days and the cells being split on days 4 and 8. […] Blank wells received cell culture medium. Plates were incubated for 4 days at 37° C. with 5% CO2. On days 4 and day 8 the cells were split and incubated for a further 4 days whilst an aliquot of cells were taken for the CTG readout. For the cell splitting, 270 nL of compounds or DMSO was added to a new 96 well cell culture plate to which 90 μL of medium plus 10 μL of cells from the original assay plate (after mixing) or 100 μL of medium (Blank wells) was added. This was repeated on day 8.
Cell viability was assessed using the CellTiter-Glo® homogeneous luminescent assay kit (Promega, G9243), according to the manufacturer's instructions. This quantifies ATP, which indicates the presence of metabolically active cells. […] The resulting data were analyzed as follows:
where vehicle are cells treated with 0.3% DMSO, Blank is culture medium. IC50 determinations were calculated by fitting the curve using XLfit (v5.3.1.3): Y=Bottom+(Top−Bottom)/(1+10^((LogIC50−X)*HillSlope)).
(Cellular ATP, detected with luciferase, serves as a proxy for viable cell number.)

The next assay addresses ENL YEATS domain (Homo sapiens (Human), UniProt Q03111). Nature of the assay: TR-FRET ENL Screening Assay. The settings on record: 6xHIS ENL YEATS domain binding to H3K9cr peptide. The method, then: Compounds of the invention were tested in a TR-FRET ENL Screening Assay. TR-FRET (time-resolved fluorescence energy transfer) can be used to quantify ENL YEATS domain binding to a crotonylated histone peptide (H3K9cr, aa1-20). Streptavidin-Europium (Eu) chelate binds the biotinylated peptide, while Anti-6×HIS ULight™ binds 6×HIS-ENL. When Eu chelate is excited at 320 nm, fluorescence resonance energy transfer (FRET) occurs if Eu and ULight are made proximal by ENL binding to the acyl-peptide.
Low control (LC) wells received 5 μL of assay buffer instead of ENL protein. […] The response at each compound concentration minus the LC value was converted to percent inhibition of the vehicle control group response (HC-LC).
(TR-FRET usually uses a lanthanide donor and a delayed reading to cut background.)

Among the data in patent publication US20250136592A1, “C-LINKED INHIBITORS OF ENL/AF9 YEATS” (Bridge Medicines, priority 2021, published 2025) are EC50 and IC50 values, retold here.

Where two headings read alike, the source gives them in different places.

ENL YEATS domain, sequence (Q03111 1-138): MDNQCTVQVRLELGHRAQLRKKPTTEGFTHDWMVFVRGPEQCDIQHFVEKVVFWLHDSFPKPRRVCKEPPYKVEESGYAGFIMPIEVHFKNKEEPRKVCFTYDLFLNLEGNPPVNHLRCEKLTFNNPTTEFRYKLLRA

Regarding `Cc1nn(C)c(=O)c2cc(C(=O)Nc3cc4[nH]c([C@H]5CCCCN5C)cc4cn3)ccc12` [Example 103, (R)-1,3-dimethyl-N-(2-(1-methylpiperidin-2-yl)-1H-pyrrolo[3,2-c]pyridin-6-yl)-4-oxo-3,4-dihydrophthalazine-6-carboxamide], the EC50 in assay [1] (Homo sapiens, 288 h) is 292 nM. The IC50 (as a rule, the concentration at which inhibition is half-maximal) at ENL YEATS domain amounted to 148 nM.
For `CN1CCC[C@@H]1c1cc2cnc(NC(=O)c3ccc4c(F)nn(C)c4c3)cc2[nH]1` [Example 55], the EC50 in assay [1] (Homo sapiens, 288 h) is 688 nM. This compound yielded an IC50 on ENL YEATS domain of 18 nM.
Consider `CN1CCC[C@@H]1c1cc2cnc(NC(=O)c3ccc4c(C(F)(F)F)nn(C)c4c3)cc2[nH]1` [Example 39], for which the EC50 in assay [1] (Homo sapiens, 288 h) was determined as 2780 nM. The compound further came in with an IC50 at ENL YEATS domain of 43 nM.
For `CNc1c(OC)cnc2cc(C(=O)Nc3cc4[nH]c([C@H]5CCCN5C)cc4cn3)ccc12` [Example 47] the same measures were 745 nM and 28 nM.
For `CN1CCCC[C@@H]1c1cc2cnc(NC(=O)c3ccc4c(=O)n(C)cnc4c3)cc2[nH]1` [Example 101, (R)-3-methyl-N-(2-(1-methylpiperidin-2-yl)-1H-pyrrolo[3,2-c]pyridin-6-yl)-4-oxo-3,4-dihydroquinazoline-7-carboxamide] the same measures were 426 nM and 177 nM.
As to `CN1CCC[C@@H]1c1cc2cnc(NC(=O)c3ccn4c(C5CC5)ncc4c3)cc2[nH]1` [Example 68], in assay [1] (Homo sapiens, 288 h), the EC50 worked out at 48 nM. In addition, the IC50 at ENL YEATS domain came out at 35 nM.
In the case of `CN1CCCC[C@@H]1c1cc2cnc(NC(=O)c3ccc4cnn(C)c4c3)cc2[nH]1` [Example 8, 1-methyl-N-[2-[(2R)-1-methylpiperidin-2-yl]-1H-pyrrolo[3,2-c]pyridin-6-yl]indazole-6-carboxamide], the EC50 in assay [1] (Homo sapiens, 288 h) came out at 123 nM. On ENL YEATS domain, this compound had an IC50 of 100 nM.
For `CN1C(=O)COc2cc(C(=O)Nc3cc4[nH]c([C@H]5CCCCN5C)cc4cn3)ccc21` [Example 105, (R)-4-methyl-N-(2-(1-methylpiperidin-2-yl)-1H-pyrrolo[3,2-c]pyridin-6-yl)-3-oxo-3,4-dihydro-2H-benzo[b][1,4]oxazine-7-carboxamide] the same measures were 416 nM and 145 nM.
For `CN1CCCC[C@@H]1c1cc2cnc(NC(=O)c3ccc4c(F)nn(C)c4c3)cc2[nH]1` [Example 81, (R)-3-fluoro-1-methyl-N-(2-(1-methylpiperidin-2-yl)-1H-pyrrolo[3,2-c]pyridin-6-yl)-1H-indazole-6-carboxamide], in assay [1] (Homo sapiens, 288 h), the EC50 stood at 292 nM. Besides, the IC50 at ENL YEATS domain is 51 nM.
Turning to `CN1CCC[C@@H]1c1cc2cnc(NC(=O)c3ccc4ccn(C)c4c3)cc2[nH]1` [Example 62], the EC50 in assay [1] (Homo sapiens, 288 h) is 597 nM. The compound further returned an IC50 at ENL YEATS domain of 465 nM.
On to `Cc1nnc(C)c2cc(C(=O)Nc3cc4[nH]c([C@H]5CCCCN5C)cc4cn3)ccc12` [Example 93], for which the EC50 in assay [1] (Homo sapiens, 288 h) amounted to 146 nM. For the same compound, the IC50 on ENL YEATS domain was 76 nM.
Regarding `Cc1cnn2ccc(C(=O)Nc3cc4[nH]c([C@H]5CCCN5C)cc4cn3)cc12` [Example 36], the EC50 in assay [1] (Homo sapiens, 288 h) was 853 nM. At ENL YEATS domain, this compound registered an IC50 of 43 nM.
`Cc1noc2cc(C(=O)Nc3ccc4nc([C@H]5CCCN5C)[nH]c4c3)c(F)cc12` [Example 14]: the EC50 in assay [1] (Homo sapiens, 288 h) was 4640 nM. The same compound displayed an IC50 at ENL YEATS domain of 178 nM.
Turning to `Cc1nnn2cc(C(=O)Nc3cc4[nH]c([C@H]5CCCN5C)cc4cn3)ccc12` [Example 64], the EC50 in assay [1] (Homo sapiens, 288 h) was 773 nM. The IC50 at ENL YEATS domain was 91 nM.
In the case of `Cc1ncc2ccc(C(=O)Nc3cc4[nH]c([C@H]5CCCCN5C)cc4cn3)cn12` [Example 89], in assay [1] (Homo sapiens, 288 h), the EC50 was determined as 252 nM. At ENL YEATS domain, the IC50 came out at 175 nM.
Consider `Cc1ccc2cc(C(=O)Nc3ccc4cc([C@H]5CCCN5C)[nH]c4c3)c(F)cc2n1` [Example 76], for which the EC50 in assay [1] is 723 nM. Also, the IC50 on ENL YEATS domain is 136 nM.
For `CN1CCCC[C@@H]1c1cc2cnc(NC(=O)c3ccc4c(ccc(=O)n4C)c3)cc2[nH]1` [Example 99, (R)-1-methyl-N-(2-(1-methylpiperidin-2-yl)-1H-pyrrolo[3,2-c]pyridin-6-yl)-2-oxo-1,2-dihydroquinoline-6-carboxamide], in assay [1] (Homo sapiens, 288 h), the EC50 amounted to 293 nM. Moreover, the IC50 on ENL YEATS domain was 56 nM.
For `Cc1ncc2ccc(C(=O)Nc3cc4[nH]c([C@H]5CCCN5C)cc4cn3)cn12` [Example 28], the EC50 in assay [1] (Homo sapiens, 288 h) amounted to 186 nM. At ENL YEATS domain, this compound gave an IC50 of 133 nM.
Take `Cc1ncc2c(F)c(C(=O)Nc3cnc4cc([C@H]5CCCN5C)[nH]c4c3)ccn12` [Example 75]: the EC50 in assay [1] (Homo sapiens, 288 h) came out at 2410 nM. Moreover, the IC50 at ENL YEATS domain stood at 126 nM.
For `CN1CCC[C@@H]1c1cc2cnc(NC(=O)c3ccc4[nH]nc(F)c4c3)cc2[nH]1` [Example 46] the same measures were 257 nM and 61 nM.
On the same counts, the results for `COc1c(C(=O)Nc2cc3[nH]c([C@H]4CCCN4C)cc3cn2)ccc2c(C)n[nH]c12` [Example 54] are 621 nM and 318 nM.
With `CN1CCC[C@@H]1c1cc2cnc(NC(=O)c3ccc4[nH]nc(Cl)c4c3)cc2[nH]1` [Example 43], the EC50 in assay [1] (Homo sapiens, 288 h) came out at 256 nM. Also, the IC50 at ENL YEATS domain was found to be 37 nM.
For the compound `Cc1ncn2cc(C(=O)Nc3cc4[nH]c([C@H]5CCCN5C)cc4cn3)ccc12` [Example 32], in assay [1] (Homo sapiens, 288 h), the EC50 was found to be 12200 nM. At ENL YEATS domain, this compound had an IC50 of 58 nM.
Consider `Cc1nc2ccc(C(=O)Nc3cc4[nH]c([C@H]5CCCN5C)cc4cn3)cc2o1` [Example 56], for which the EC50 in assay [1] (Homo sapiens, 288 h) is 4780 nM. Further, the IC50 on ENL YEATS domain amounted to 131 nM.
For `Cc1nn(C)c(=O)c2ccc(C(=O)Nc3cc4[nH]c([C@H]5CCCCN5C)cc4cn3)cc12` [Example 104, (R)-2,4-dimethyl-N-(2-(1-methylpiperidin-2-yl)-1H-pyrrolo[3,2-c]pyridin-6-yl)-1-oxo-1,2-dihydrophthalazine-6-carboxamide] the same measures were 492 nM and 160 nM.
Regarding `Cc1nccc2cc(C(=O)Nc3cc4[nH]c([C@H]5CCCN5C)cc4cn3)ccc12` [Example 65], the EC50 in assay [1] (Homo sapiens, 288 h) stood at 54 nM. Further, at ENL YEATS domain, the half-inhibitory concentration (IC50) worked out at 18 nM.
On to `Cc1ncc2cc(C(=O)Nc3cc4[nH]c([C@H]5CCCN5C)cc4cn3)ccn12` [Example 42], for which the EC50 in assay [1] (Homo sapiens, 288 h) came out at 117 nM. Further, the IC50 at ENL YEATS domain turned out to be 84 nM.
Consider `CN1CCC[C@@H]1c1cc2cnc(NC(=O)c3ccc4c(c3)nnn4C)cc2[nH]1` [Example 57], for which, in assay [1] (Homo sapiens, 288 h), the EC50 was > 30000 nM. For the same compound, at ENL YEATS domain, the IC50 was determined as 106 nM.
On to `CNc1nn(C)c2cc(C(=O)Nc3cc4[nH]c([C@H]5CCCN5C)cc4cn3)ccc12` [Example 50], for which the EC50 in assay [1] (Homo sapiens, 288 h) was 2320 nM. On ENL YEATS domain, the IC50 was 103 nM.
With `Cc1nccc2ccc(C(=O)Nc3cc4[nH]c([C@H]5CCCN5C)cc4cn3)cc12` [Example 83], in assay [1] (Homo sapiens, 288 h), the EC50 amounted to 229 nM. This compound also had an IC50 at ENL YEATS domain of 64 nM.
On the same counts, the results for `CN1CCC[C@@H]1c1cc2cnc(NC(=O)c3ccc4c(c3)ncn4C)cc2[nH]1` [Example 59] are 15800 nM and 53 nM.
Take `CN1CCC[C@@H]1c1cc2cnc(NC(=O)c3ccn4ccnc4c3)cc2[nH]1` [Example 45]: the EC50 in assay [1] (Homo sapiens, 288 h) amounted to 6950 nM. At ENL YEATS domain, this compound gave an IC50 of 293 nM.
For `Cc1nccc2ccc(C(=O)Nc3cc4[nH]c([C@H]5CCCCN5C)cc4cn3)cc12` [Example 88], the EC50 in assay [1] (Homo sapiens, 288 h) was determined as 69 nM. Further, the IC50 at ENL YEATS domain was 47 nM.
Consider `Cc1nc(C)n2cc(C(=O)Nc3cc4[nH]c([C@H]5CCCCN5C)cc4cn3)ccc12` [Example 90], for which, in assay [1] (Homo sapiens, 288 h), the EC50 worked out at 144 nM. Moreover, on ENL YEATS domain, the IC50 turned out to be 51 nM.
On the same counts, the results for `Cc1noc2cc(C(=O)Nc3cc4[nH]c([C@H]5CCCN5C)cc4cn3)ccc12` [Example 30] are 39 nM and 51 nM.
Take `CN1CCC[C@@H]1c1cc2cnc(NC(=O)c3ccc4[nH]nc(C(F)(F)F)c4c3)cc2[nH]1` [Example 33]: in assay [1] (Homo sapiens, 288 h), the EC50 amounted to 1780 nM. Moreover, the IC50 on ENL YEATS domain came to 42 nM.
